This note sets out measurements from patent US8614240B2, “Benzoxazole derivatives having inhibitory activity against interleukin-6, preparation method thereof, and pharmaceutical composition containing the same” (EWHA University-Industry Collaboration Foundation, priority 2010, dated 2013).

Data set [1] deals with IL-6 reactive STAT3 reporter gene. Kind of data set: IL-6 reactive STAT3 reporter gene test (pSTAT3-TA-Luc6 luciferase) in HepG2 cells. In kind it is cell-based. Particulars: Homo sapiens. On the procedure:
A pSTAT3-TA-Luc6 construct, which comprises 8 more STAT3 DNA binding sequence copies as compared to pSTAT-3-TA-Luc and thus, enables to better reflect STAT3 reporter gene assay, was prepared. STAT3 DNA binding sequence was amplified using pSTAT3-TA-Luc plasmid (Clontech, Palo Alto, Calif.) as the template, and oligonucleotide ([…]. SEQ ID NO: 1 (containing Kpn I site)) and oligonucleotide ([…] GAAGCAACGTTC (containing Xho I site)) as forward primer and reverse primer, respectively, by means of a thermocycler. The amplified PCR product was cloned, separated, and then inserted into Kpn I/Xho I site of pSTAT3-TA-Luc plasmid.
Human hepatoma cell line, HepG2 cell, was incubated in MEM (Minimal Essential Medium, WelGENE Inc, Daegu, Korea) medium under water-saturated condition at 37° C., 5% CO2. To this medium was added 10% (v/v) fetal bovine serum, streptomycin (100 U/mL) and penicillin (100 U/mL). 6-Well cell culture plate was allowed to grow cells up to 80%, and then the specimen was pre-treated for one hour. Then, the medium was changed into 50 μL of serum-free medium, and the mixed solution of 0.1 μL pSTAT3-TA-Luc6 construct and 0.3 μL lipofectamin reagent was added to each well and then allowed to react for 3 hours to transfect cells with pSTAT3-TA-Luc6 construct. The medium was changed to a fresh medium, and the plate was incubated for 24 hours to transiently transfect cells. The transfected cells were serum-starved with 1% BSA/DMEM, and treated with the samples for one hour and then, after adding IL-6, incubated for 3 hours. The mixture was washed with PBS, shaken for one minute with addition of 50 μL of lysis buffer (promega luciferase assay system). After adding 30-100 μL of luciferase substrate (Promega luciferase assay system), the mixture was measured by a luminometer within 5 minutes.
Among others Compounds 1 and 3 as the materials having high inhibitory effect on IL-6 activity were used at various concentration to measure the degree of inhibitory effect, and the results thereof are as shown in FIGS. 2 and 3.
On the technique in general: In a reporter assay the amount or activity of a reporter protein is the signal.

For data set [2], the system named is IL-6 induced STAT3 phosphorylation. The data set is described as follows: Test for inhibitory activity against STAT3 phosphorylation induced by IL-6 (Western blot, HepG2). Particulars: HepG2, 1, 3, 10, 30, 100 ug/ml, 10 ng/ml IL-6 (FIG. 4). In kind it is cell-based, human. The protocol:
HepG2 cells were divisionally inoculated in 6-well plate in the ratio of 5×10^4 cells/well, and grown to be 80% confluent. After changing to a serum-free medium and incubating for 6 hours, cells were pre-treated with the samples for one hour. […] Then the mixture was centrifuged (13,000×g, 15 minutes) to obtain a lysate as the supernatant. Herein, HepG2 cells not treated with IL-6 and the samples were used as the control group. The concentration of proteins was quantified by means of Bio-Rad DC protein assay kit, and the protein was loaded on 10% SDS-polyacrylamide gel (SDS-PAGE) and electrophoresed at 30 mA for 2 hours. After completion of the electrophoresis, the protein on gel was transcribed into PVDF membrane (Westran® S, pore size […]) at 90V for 90 minutes, and the transcribed membrane was blocked with Tris-buffered solution (T-TBS; 50 mM Tri-HCl, pH 7.6, 150 mM NaCl, 0.2% Tween-20, 5% skim milk) at 4° C. for 12 hours, and washed five time with T-TBS. The membrane was treated with polyclonal antibodies of phospho-STAT3 (1:1000 dilutions, respectively) as the primary antibody for 2 hours. After washing five times with T-TBS, the membrane was reacted with HRP-conjugated anti-rabbit antibody (1:5000 dilutions) as the secondary antibody for one hour. After washing with T-TBS, the film was developed in the dark room by means of ECL.

For data set [3], the system named is IL-6 induced ERK phosphorylation. Kind of data set: Test for inhibitory activity against ERK phosphorylation induced by IL-6 (Western blot, HepG2). In kind it is cell-based, human. Particulars: HepG2, 30 μg/ml (FIG. 5). The protocol:
HepG2 cell was divisionally inoculated in 6-well plate, and then starved for 18 hours.
The starved cells were treated with the samples for one hour, and then stimulated with IL-6 or LIF (Upstate Biotechnology, USA) for 10 minutes. The specimen was treated with 5× cell lysis buffer (Promega) sometimes with vortexing under ice for 30 minutes. The cell lysate obtained as described under B in Experiment 1 (3) was dissolved in 8% SDS-PAGE gel, and transferred to the nitrocellulose membrane. This membrane was blocked with Tris-buffered solution (50 mM Tris-HCl (pH 7.4), 150 mM NaCl, 0.1% Tween 20) containing 5% non-fat dry milk at 4° C. Then, it was incubated together with an appropriate primary antibody (ERK) present in Tris-buffered solution (50 mM Tris-HCl (pH 7.4), 150 mM NaCl, 0.1% Tween 20) containing 5% non-fat dry milk, at room temperature for 1-2 hours. This membrane was washed five times with TBS buffer solution for 10 minutes, and incubated with 1:6000 diluted horseradish peroxidase-conjugated secondary antibodies for one hour. The membrane was washed 10 times with TBS buffer solution, and then mixed and incubated with the 1:1 mixture of HRP Substrate Luminol Reagent and HRP Substrate Peroxide Solution as ELC reagent (Millipore Corp. Ma USA). The chemiluminescent signals were visualized with X-ray film.
A general note: In western blotting, separated proteins are transferred to a membrane and probed.

The next data set has as its system Respective cell lines. The data set is described as follows: Cytotoxicity assay (MTT). Type of data set: cell-based. Particulars: 48 hours. On the procedure: In testing the compounds in cell lines, if cells are killed due to a toxicity of the compounds at the treatment concentration, a significant result cannot be obtained. Therefore, the toxicity assay was conducted by treatment with the compounds as follows. Respective cell lines were maintained on 96-well cell culture plate in the medium comprising 10% FBS with 1% Penicillin G/streptomycin, and then incubated under 37° C., 5% CO2 condition. All the experiments were repeated three times. The samples were properly diluted, and then cells were treated with the diluted samples at the concentrations of 1, 3, 10, 30, 100 μg/ml. After 48 hours, 10% (v/v) 5 mg/mL 3-(4,5-dimethylthiazol-2-yl)-2,5-diphenyltetrazolium bromide (MTT; Sigma) was added to the cell culture. After 3 hours of the incubation, the medium was aspirated and washed with PBS. After adding DMSO (100 μl), the mixture was gently agitated for 5 minutes. The absorbance was measured at 570 nm by means of VERSA max microplate reader (Molecular Devices Inc.), and the average absorbance (±SE) values as obtained from three experiments were compared with t-test, a statistical significance of P<0.05. When Compounds 1 and 3 were used at the concentrations of 1, 3, 10, 30, 100 μg/ml, the survival rates of cells were 94, 76, 70, 67, 30%, respectively, by the treatment with Compound 1, and 74, 71, 65, 57, 19%, respectively, by the treatment with Compound 3. It means that at least 50% of cells survive at the concentration (for example, 30 μg/ml) of the compounds of the present invention for measuring IL-6 inhibitory activity.

Setting [4] is: HepG2, 20 ug/ml of sample, HepG2 cells, read-out: Inhibition % of IL-6 reactive STAT3 reporter gene activity.

Read-outs that look alike come from different tables or passages of the source.

As to `CCc1ccc(Nc2nc3cc(N)ccc3o2)cc1` [Compound 1, N^2-(4-ethylphenyl)benzo[d]oxazole-2,5-diamine], the inhibition at 20 µg/mL in data set [1] (setting [4]) stood at 97%. The IC50 in data set [1] (HepG2 cells, various concentrations (FIGS. 2 and 3), read-out: IC50 of IL-6 inhibitory activity (STAT3 reporter gene)) turned out to be 18.9 µM. Moreover, the “Inhibitory activity on IL-6 induced STAT3 phosphorylation” value in data set [2] is reported as “inhibited IL-6 expression in a concentration-dependent manner”. The “Influence on IL-6 induced ERK phosphorylation” value in data set [3] is “did not influence on ERK phosphorylation”. In addition, the “Survival rate of cells” value with Respective cell lines (1 μg/ml) is on record as 94%; with Respective cell lines (3 μg/ml), 76%; in the data set with Respective cell lines (10 μg/ml), 70%; in the data set with Respective cell lines (30 μg/ml), 67%; with Respective cell lines (100 μg/ml), 30%.
As for `CCc1ccc(Nc2nc3cc(NC(=O)Cc4ccccc4)ccc3o2)cc1` [Compound 2, N-(2-(4-ethylphenylamino)benzo[d]oxazol-5-yl)-2-phenylacetamide], the melting point was > 250 °C. Besides, the inhibition at 20 µg/mL in data set [1] (setting [4]) was found to be 61.7%.
Turning to `CCc1ccc(Nc2nc3cc(NC(=O)c4ccc(Cl)cc4)ccc3o2)cc1` [Compound 4, 4-chloro-N-(2-(4-ethylphenylamino)benzo[d]oxazol-5-yl)benzamide], the melting point is > 250 °C. In data set [1] (setting [4]), the inhibition at 20 µg/mL came out at 12.1%.
On the same counts, the results for `CCc1ccc(Nc2nc3cc(NC(=O)c4ccc([N+](=O)[O-])cc4Cl)ccc3o2)cc1` [Compound 5, 2-chloro-N-(2-(4-ethylphenylamino)benzo[d]oxazol-5-yl)-4-nitrobenzamide] are > 250 °C and 20%.
Turning to `CCc1ccc(Nc2nc3cc(NC(=O)c4cc([N+](=O)[O-])ccc4Cl)ccc3o2)cc1` [Compound 6, 2-chloro-N-(2-(4-ethylphenylamino)benzo[d]oxazol-5-yl)-5-nitrobenzamide], the inhibition at 20 µg/mL in data set [1] (setting [4]) was 65.6%.
Take `CCc1ccc(Nc2nc3cc(NC(=O)c4ccc(Cl)c(Cl)c4)ccc3o2)cc1` [Compound 7, 3,4-dichloro-N-(2-(4-ethylphenylamino)-benzo[d]oxazol-5-yl)benzamide]: in data set [1] (setting [4]), the inhibition at 20 µg/mL came out at 69.3%.
The same measure, in the same setting: the figure for `CCc1ccc(Nc2nc3cc(NC(=O)c4cccc(CCl)c4)ccc3o2)cc1` [Compound 8, 3-(chloromethyl)-N-(2-(4-ethylphenyl-amino)benzo[d]oxazol-5-yl)benzamide] is > 80%.
In the case of `CCc1ccc(Nc2nc3cc(NC(=O)c4ccc(CC)cc4)ccc3o2)cc1` [Compound 9, 4-ethyl-N-(2-(4-ethylphenylamino)benzo[d]oxazol-5-yl)benzamide], the melting point was > 250 °C. Also, the inhibition at 20 µg/mL in data set [1] (setting [4]) is 63.3%.
For `CCc1ccc(Nc2nc3cc(NC(=O)c4cc(F)cc(C(F)(F)F)c4)ccc3o2)cc1` [Compound 10, N-(2-(4-ethylphenylamino)benzo[d]oxazol-5-yl)-3-fluoro-5-(trifluoromethyl)benzamide], the melting point was > 250 °C. The inhibition at 20 µg/mL in data set [1] (setting [4]) stood at 50.2%.
The compound `CCOc1ccccc1C(=O)Nc1ccc2oc(Nc3ccc(CC)cc3)nc2c1` [Compound 11, 2-ethoxy-N-(2-(4-ethylphenylamino)-benzo[d]oxazol-5-yl)benzamide] registered a melting point of 181.6 to 182 °C. Besides, the inhibition at 20 µg/mL in data set [1] (setting [4]) turned out to be 58%.
As to `CCc1ccc(Nc2nc3cc(NC(=O)c4ccc(C(C)(C)C)cc4)ccc3o2)cc1` [Compound 12, 4-tert-butyl-N-(2-(4-ethylphenylamino)-benzo[d]oxazol-5-yl)benzamide], the inhibition at 20 µg/mL in data set [1] (setting [4]) was > 80%.
For `CCc1ccc(Nc2nc3cc(NC(=O)c4ccc(OC)c(OC)c4)ccc3o2)cc1` [Compound 13, N-(2-(4-ethylphenylamino)benzo[d]oxazol-5-yl)-3,4-dimethoxybenzamide], the melting point was > 250 °C. For the same compound, the inhibition at 20 µg/mL in data set [1] (setting [4]) turned out to be 26.2%.
Regarding `CCc1ccc(Nc2nc3cc(NC(=O)c4cc(OC)c(OC)c(OC)c4)ccc3o2)cc1` [Compound 14, N-(2-(4-ethylphenylamino)benzo[d]oxazol-5-yl)-3,4,5-trimethoxybenzamide], the melting point is > 250 °C. Moreover, the inhibition at 20 µg/mL in data set [1] (HepG2, read-out: Inhibition % of IL-6 reactive STAT3 reporter gene activity, 20 ug/ml of sample, HepG2 cells) was > 80%.
In the case of `CCCCCCCc1ccc(C(=O)Nc2ccc3oc(Nc4ccc(CC)cc4)nc3c2)cc1` [Compound 15, N-(2-(4-ethylphenylamino)benzo[d]oxazol-5-yl)-4-heptylbenzamide], the melting point was in the range of 244.8 to 246 °C. Besides, the inhibition at 20 µg/mL in data set [1] (setting [4]) came out at 57.2%.
`CCc1ccc(Nc2nc3cc(NC(=O)c4ccccc4Nc4cccc(C(F)(F)F)c4)ccc3o2)cc1` [Compound 16, N-(2-(4-ethylphenylamino)benzo[d]oxazol-5-yl)-2-(3-(trifluoromethyl)phenylamino)benzamide] yielded a melting point of 174 to 176 °C. Besides, the inhibition at 20 µg/mL in data set [1] (setting [4]) was > 80%.

Broadly, the IC50 is the concentration that inhibits the measured activity by half. Usually melting point stands for the temperature, or range, at which the solid turns liquid.
